Where no end group is shown, it is not given here. [ ]: non-standard residue; d: D form. NMeA = CN[C@@H](C)C(=O)O; Ahx = NCCCCCC(=O)O
How the values were obtained:
[1] = test system: M. persicae (peach potato/Green Peach Aphid); assay: IRAC leaf dip assay on adult aphids; type: in vivo, Myzus persicae; conditions: for Peptide efficacy compared with endogenous CAPA-3: adult aphids and nymphs, scored 72, 96 and 120 hours
Description: Peptide efficacy (2×10^−4 M) was assessed on M. persicae (peach potato/Green Peach Aphid) using IRAC leaf dip assays on adult aphids. Peptides were administered on leaves either in DDH2O or Amino Acid Mix (Sadeghi et al., 2010) to increase uptake via feeding. Insecticide treatment was with Spirotetramat, 2×10^−4 M
Data are from 120 hours post-treatment, indicating % adult lethality (left panel); and number of nymphs per sample (right panel) for each of SB-P-1 (endogenous CAPA-3, N =26 (H2O); 15 (AA)), SB-P-14 (CAPA-3 analogue, N=5); SB-P-15 (CAPA-3 analogue, N=10). Peptide application rates are 2×10^−4 M. Note that nymph values for spirotetramat are 0.
Data are for 120 hours, indicating % adult lethality (left panel); and number of nymphs per sample (right panel). Individual data points are shown, N=5. Peptide application rates are 2×10^−4 M.

[2] = test system: M. persicae CAPA receptor; assay: activation assay (IP1 assay) for M. persicae CAPA receptor; type: cell-based, Myzus persicae; conditions: initial screen, FIG. 7
[3] = test system: H. halys CAPA receptor; conditions: data in Ahn et al, 2020; cited from earlier work
[4] = test system: Pyrokinin receptor; conditions: Brown Marmorated Stinkbug, H. halys; Ahn et al., 2020; cited from earlier work
[5] = leaf dip, peptide 2×10^−4 M, 120 hours

In the case of CCOC(=O)OC1=C(c2cc(C)ccc2C)C(=O)N[C@]12CC[C@@H](OC)CC2 [spirotetramat, Spirotetramat, reference compound], the “number of nymphs per sample” value ([1]; 120 hours post-treatment, 2×10^−4 M) is reported as 0.

In the case of H-SDSKNTALWFGPRL-NH2 [SB-P-1], the “activation of M. persicae CAPA receptor” value [2] is given as “do not activate”, the “activation of H. halys CAPA receptor” value [3] is given as “does not activate” and the “activation of Pyrokinin receptor” value [4] is given as “activate”.

For “Hy-Ahx-SDSKNT[n-me-A]LWFGPRL-[NH2] ([Ahx]SDSKNT[NMeA]LWFGPRL-NH2; N-terminus assumed; SMILES CC(C)C[C@H](NC(=O)[C@H](CCCNC(=N)N)NC(=O)[C@@H]1CCCN1C(=O)CNC(=O)[C@H](Cc1ccccc1)NC(=O)[C@H](Cc1c[nH]c2ccccc12)NC(=O)[C@H](CC(C)C)NC(=O)[C@H](C)N(C)C(=O)[C@@H](NC(=O)[C@H](CC(N)=O)NC(=O)[C@H](CCCCN)NC(=O)[C@H](CO)NC(=O)[C@H](CC(=O)O)NC(=O)[C@H](CO)NC(=O)CCCCCN)[C@@H](C)O)C(N)=O) [SB-P-14]”, the “Peptide efficacy compared with endogenous CAPA-3” value ([1]; leaf dip, peptide 2×10^−4 M) was “did not perform as well as endogenous CAPA-3”.

With “Hy-SDSKNT[n-me-A]LWFGPRL-[nh2] [SB-P-15]” the “Peptide efficacy compared with endogenous CAPA-3” value ([1]; leaf dip, peptide 2×10^−4 M) was “an improvement on endogenous CAPA-3 efficacy”, the “aphicidal efficacy (adult lethality)” value [1, 5] was “highly effective” and the nymphicidal efficacy [1, 5] was “highly effective”. For the same compound, the “activation of M. persicae CAPA receptor” value [2] was “do not activate”.
